The values below come from PMC2685281 (Journal of organometallic chemistry, 2009).

As a reminder, the IC50 is the concentration at which inhibition is half-maximal. Usually Kd stands for the concentration at which binding is half-saturated.

Assay [1] deals with T1, lipoic acid groups of the pyruvate dehydrogenase complex (Sus scrofa, UniProt A0A4X1TBD2).
T1 sequence (A0A4X1TBD2 1-647): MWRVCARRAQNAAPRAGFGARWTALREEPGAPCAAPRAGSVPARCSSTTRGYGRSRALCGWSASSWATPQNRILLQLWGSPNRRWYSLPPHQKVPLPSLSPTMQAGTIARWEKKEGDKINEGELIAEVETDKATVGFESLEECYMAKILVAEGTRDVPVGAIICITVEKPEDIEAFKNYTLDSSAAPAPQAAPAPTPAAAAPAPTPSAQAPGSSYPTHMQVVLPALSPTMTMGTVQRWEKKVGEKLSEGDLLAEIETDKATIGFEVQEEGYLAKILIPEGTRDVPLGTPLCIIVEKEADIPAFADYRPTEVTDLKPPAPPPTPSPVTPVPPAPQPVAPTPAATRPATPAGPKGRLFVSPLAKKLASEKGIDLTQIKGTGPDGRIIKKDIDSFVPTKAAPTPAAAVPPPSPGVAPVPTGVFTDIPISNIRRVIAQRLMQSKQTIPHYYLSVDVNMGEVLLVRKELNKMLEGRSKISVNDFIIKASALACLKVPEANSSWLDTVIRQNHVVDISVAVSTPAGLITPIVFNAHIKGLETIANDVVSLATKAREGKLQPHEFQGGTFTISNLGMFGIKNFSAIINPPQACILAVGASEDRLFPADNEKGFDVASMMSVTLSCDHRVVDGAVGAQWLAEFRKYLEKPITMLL
Type of assay: binding, porcine.

The target of assay [2] is T2, lipoic acid groups of the α-ketoglutarate dehydrogenase complex (Sus scrofa, UniProt Q9N0F1).
T2 sequence (Q9N0F1 69-455): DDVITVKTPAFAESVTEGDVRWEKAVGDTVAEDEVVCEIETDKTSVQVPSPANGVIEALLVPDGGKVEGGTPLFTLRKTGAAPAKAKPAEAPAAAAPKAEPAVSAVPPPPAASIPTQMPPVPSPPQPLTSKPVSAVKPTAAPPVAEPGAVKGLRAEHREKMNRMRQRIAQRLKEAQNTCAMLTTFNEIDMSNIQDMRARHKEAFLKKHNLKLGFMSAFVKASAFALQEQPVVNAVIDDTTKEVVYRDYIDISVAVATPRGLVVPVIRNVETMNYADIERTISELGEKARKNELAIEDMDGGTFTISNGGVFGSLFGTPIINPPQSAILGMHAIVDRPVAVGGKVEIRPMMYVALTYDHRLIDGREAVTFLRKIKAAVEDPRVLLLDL
Type of assay: binding, porcine.

The target in assay [3] is pyruvate dehydrogenase (PDH) complex. Type of assay: biochemical, porcine.
Assay [4] concerns the target α-ketoglutarate dehydrogenase (KGDH) complex (Sus scrofa, UniProt Q9N0F1). The assay is classed as biochemical, porcine.
Another assay relates to PDH complex. The following applies: read-out: IC50, PDH inhibition; cited from earlier work.
For a further assay, the target named is reduced thiol groups. Conditions: read-out: dissociation constants (Kd) for reduced thiol groups; cited from earlier work.

Like-named read-outs stand apart in the source and are kept apart here.

Take Dimethylarsonous iodide [DMA ^3+]: in assay [1], the “Loss of recognition of lipoic acid groups by anti-lipoic acid antibody, PDH” value is on record as “strong interference”. In addition, the “Loss of recognition of lipoic acid groups by anti-lipoic acid antibody, KGDH” value in assay [2] is “strong interference”.
For Sodium arsenite [As ^3+], in assay [3], the “50% enzyme inhibition (IC50), PDH, half hour incubation” value amounted to 704 ppb. For the same substance, in assay [3], the “50% enzyme inhibition (IC50), PDH, one hour incubation” value is reported as 267 ppb. Also, the half-maximal inhibitory concentration (IC50) in assay [3] (read-out: 50% enzyme inhibition (IC50), PDH, half hour incubation) is 9.39 µM; in assay [3] (read-out: 50% enzyme inhibition (IC50), PDH, one hour incubation) it was 3.56 µM; in assay [4] (read-out: 50% enzyme inhibition (IC50), KGDH, half hour incubation), 9.78 µM; in assay [4] (read-out: 50% enzyme inhibition (IC50), KGDH, one hour incubation), 6.51 µM; in the assay with PDH complex, 116 µM. In addition, the “50% enzyme inhibition (IC50), KGDH, half hour incubation” value in assay [4] was determined as 733 ppb. For the same substance, the “50% enzyme inhibition (IC50), KGDH, one hour incubation” value in assay [4] is given as 488 ppb. Also, the equilibrium dissociation constant (Kd) at reduced thiol groups was 5 to 124 µM.
